Reference: patent US20260356819A1, “OXOISOINDOLINYL-SUBSTITUTED […] DERIVATIVE AND USE THEREOF” (GLUETACS THERAPEUTICS (SHANGHAI) CO., LTD., priority 2023, published 2026)

What was measured:
[1] = system: MV-4-11 cells; experiment: Inhibition of proliferation of myeloid monocytic leukemia cells MV-4-11 (cell viability assay, 96 h); type: cell-based, human; details: read-out: inhibitory activity (IC50) against tumor cells proliferation, MV-4-11
Description: The tumor cells used herein were cultured in a cell culture medium listed in table 2 at 37 °C in an incubator with 5% CO2. Prior to experimentation, all cell lines used were correctly identified by STR profiling, and tested negative for Mycoplasma contamination using a Mycoplasma detection kit through routine screenings.
The IC50 values of the compounds of the present disclosure (including the compounds in Table 1, and Examples 1-498) were determined using the CellTiter-Meiluncell Luminescent Cell Viability Assay Kit from Dalian Meilun Biotech Co., Ltd. The detailed procedure is as follows: Tumor cells were seeded in 96-well cell culture plates at the densities specified in Table 3. On the following day, the test compounds of the present disclosure were subjected to serial dilution. […] Subsequently, 0.5 μL of the test compound dilution was transferred into the 96-well plate containing the cells, with each well containing 100 μL of cell culture medium. […] Into the 96-well plate, the diluted test compounds and corresponding detection reagents were added, resulting in final test compound concentrations of 500 nM and 10 nM, respectively. The experimental procedure is described below using the diluted 2 μM test compound as an example.
0.5 μL of the aforementioned diluted compound of the present disclosure (including the compounds in Table 1, and Examples 1-498) was added to the seeded cells in 100 μL of medium, yielding a final test compound concentration of 10 nM. After the cells were treated with the compounds of the present disclosure for a specified period, the cell viability assay reagent was added to the culture medium according to the kit's instructions to determine cell viability. […] All controls were treated using the same procedure as the compounds of the present disclosure. The growth inhibition curves for the compounds of the present disclosure were plotted using Prism GraphPad software, and the IC50 values were calculated therefrom.

[2] = target: T1, WEE1 (Homo sapiens, UniProt P30291+Q96SW2); experiment: Western blot degradation of WEE1 in hPBMCs (24 h); type: cell-based; details: compounds at 50 nM and 500 nM
T1 construct: The supernatant was aspirated as the extracted total cell protein; endogenous in cells; host or cells: human peripheral blood mononuclear cells (hPBMCs)
Summary of the method: (§1)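 PBMC Western blot, 24 h treatment; test levels 50 nM and 500 nM. Band density ÷ internal control, normalised → % remaining; degradation (%) = 1 − remaining.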

[3] = target: T2, IKZF1 (Homo sapiens, UniProt Q13422+Q96SW2); experiment: Western blot degradation of IKZF1 in hPBMCs (24 h); type: cell-based; details: compounds at 50 nM and 500 nM
T2 construct: The supernatant was aspirated as the extracted total cell protein; endogenous in cells; host or cells: human peripheral blood mononuclear cells (hPBMCs)
T2 sequence (Q13422 whole entry): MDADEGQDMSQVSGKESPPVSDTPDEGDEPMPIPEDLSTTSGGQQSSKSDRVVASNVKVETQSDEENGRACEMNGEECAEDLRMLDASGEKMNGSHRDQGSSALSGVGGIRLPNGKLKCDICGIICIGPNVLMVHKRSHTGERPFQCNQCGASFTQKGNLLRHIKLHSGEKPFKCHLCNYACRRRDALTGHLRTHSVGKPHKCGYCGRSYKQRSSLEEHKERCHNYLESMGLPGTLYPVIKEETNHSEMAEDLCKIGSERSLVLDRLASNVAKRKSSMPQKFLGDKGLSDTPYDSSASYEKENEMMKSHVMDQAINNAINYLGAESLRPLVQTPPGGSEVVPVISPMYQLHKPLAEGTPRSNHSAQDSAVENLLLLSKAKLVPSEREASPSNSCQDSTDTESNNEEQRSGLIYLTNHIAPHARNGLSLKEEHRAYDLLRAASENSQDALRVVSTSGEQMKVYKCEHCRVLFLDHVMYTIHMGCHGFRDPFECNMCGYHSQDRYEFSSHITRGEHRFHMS
T2 sequence (Q96SW2 whole entry): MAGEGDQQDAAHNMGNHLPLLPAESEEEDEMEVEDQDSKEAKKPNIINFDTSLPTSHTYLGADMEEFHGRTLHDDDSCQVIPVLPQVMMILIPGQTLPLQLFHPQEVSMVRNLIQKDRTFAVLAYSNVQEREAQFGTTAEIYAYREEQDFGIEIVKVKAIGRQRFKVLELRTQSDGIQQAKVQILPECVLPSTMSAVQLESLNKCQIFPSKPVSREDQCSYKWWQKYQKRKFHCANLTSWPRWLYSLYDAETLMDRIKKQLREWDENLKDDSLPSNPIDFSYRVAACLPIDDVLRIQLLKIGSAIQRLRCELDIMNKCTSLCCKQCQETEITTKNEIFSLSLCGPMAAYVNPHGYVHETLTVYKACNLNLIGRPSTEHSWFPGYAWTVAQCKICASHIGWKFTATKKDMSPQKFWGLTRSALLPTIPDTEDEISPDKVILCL
T2 sequence (Q16531 whole entry partner): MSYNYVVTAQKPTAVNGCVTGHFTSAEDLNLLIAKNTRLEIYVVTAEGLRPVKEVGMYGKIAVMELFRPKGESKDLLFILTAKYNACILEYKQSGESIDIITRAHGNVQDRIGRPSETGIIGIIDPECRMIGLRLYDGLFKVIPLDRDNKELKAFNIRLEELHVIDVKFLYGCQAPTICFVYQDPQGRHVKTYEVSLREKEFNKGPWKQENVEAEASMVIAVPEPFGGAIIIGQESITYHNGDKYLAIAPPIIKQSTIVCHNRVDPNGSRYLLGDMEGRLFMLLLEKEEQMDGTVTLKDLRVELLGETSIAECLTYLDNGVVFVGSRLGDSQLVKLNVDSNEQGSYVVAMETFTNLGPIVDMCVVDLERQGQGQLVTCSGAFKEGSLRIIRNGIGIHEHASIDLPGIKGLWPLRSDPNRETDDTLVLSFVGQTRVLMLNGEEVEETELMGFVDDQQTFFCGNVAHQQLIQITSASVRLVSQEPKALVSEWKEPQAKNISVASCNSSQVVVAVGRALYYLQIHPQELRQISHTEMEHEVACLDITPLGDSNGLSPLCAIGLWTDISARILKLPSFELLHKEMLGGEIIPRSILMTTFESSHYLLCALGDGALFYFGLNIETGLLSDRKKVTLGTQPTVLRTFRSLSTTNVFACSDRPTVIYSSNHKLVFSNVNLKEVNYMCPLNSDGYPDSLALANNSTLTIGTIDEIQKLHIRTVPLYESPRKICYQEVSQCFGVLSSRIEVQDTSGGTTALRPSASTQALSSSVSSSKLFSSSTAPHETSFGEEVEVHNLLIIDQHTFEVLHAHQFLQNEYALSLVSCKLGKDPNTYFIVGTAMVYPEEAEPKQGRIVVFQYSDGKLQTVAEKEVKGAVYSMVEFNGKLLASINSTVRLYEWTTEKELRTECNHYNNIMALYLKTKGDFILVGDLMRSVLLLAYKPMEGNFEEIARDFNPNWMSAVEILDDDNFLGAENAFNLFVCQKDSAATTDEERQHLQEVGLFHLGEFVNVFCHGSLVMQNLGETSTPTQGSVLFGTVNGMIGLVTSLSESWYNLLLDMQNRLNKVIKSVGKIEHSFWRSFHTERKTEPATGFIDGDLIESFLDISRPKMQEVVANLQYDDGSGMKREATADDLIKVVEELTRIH
Summary of the method: as §1

[4] = target: T3, IKZF2 (Homo sapiens, UniProt Q96SW2+Q9UKS7); experiment: Western blot degradation of IKZF2 in hPBMCs (24 h); type: cell-based; details: compounds at 50 nM and 500 nM
T3 construct: The supernatant was aspirated as the extracted total cell protein; endogenous in cells; host or cells: human peripheral blood mononuclear cells (hPBMCs)
T3 sequence (Q9UKS7 whole entry): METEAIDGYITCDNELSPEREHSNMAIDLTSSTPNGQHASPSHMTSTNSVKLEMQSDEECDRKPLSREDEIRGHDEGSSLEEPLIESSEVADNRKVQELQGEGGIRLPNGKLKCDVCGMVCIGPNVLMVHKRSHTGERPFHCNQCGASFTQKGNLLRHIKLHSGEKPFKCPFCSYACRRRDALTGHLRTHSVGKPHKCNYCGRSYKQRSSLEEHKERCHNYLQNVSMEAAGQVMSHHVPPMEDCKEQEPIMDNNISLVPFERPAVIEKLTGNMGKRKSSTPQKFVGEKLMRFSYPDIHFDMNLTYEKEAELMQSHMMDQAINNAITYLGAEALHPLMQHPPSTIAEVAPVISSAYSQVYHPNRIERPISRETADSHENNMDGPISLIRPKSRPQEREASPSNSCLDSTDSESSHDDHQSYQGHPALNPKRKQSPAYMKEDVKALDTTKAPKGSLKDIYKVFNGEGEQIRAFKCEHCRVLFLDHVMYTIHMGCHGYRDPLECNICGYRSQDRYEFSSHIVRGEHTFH
T3 sequence (Q96SW2 whole entry): as the sequence (Q96SW2 whole entry) above
T3 sequence (Q16531 whole entry partner): as the sequence (Q16531 whole entry partner) above
Summary of the method: as §1

[5] = target: T4, IKZF3 (Homo sapiens, UniProt Q96SW2+Q9UKT9); experiment: Western blot degradation of IKZF3 in hPBMCs (24 h); type: cell-based; details: compounds at 50 nM and 500 nM
T4 construct: The supernatant was aspirated as the extracted total cell protein; endogenous in cells; host or cells: human peripheral blood mononuclear cells (hPBMCs)
T4 sequence (Q9UKT9 whole entry): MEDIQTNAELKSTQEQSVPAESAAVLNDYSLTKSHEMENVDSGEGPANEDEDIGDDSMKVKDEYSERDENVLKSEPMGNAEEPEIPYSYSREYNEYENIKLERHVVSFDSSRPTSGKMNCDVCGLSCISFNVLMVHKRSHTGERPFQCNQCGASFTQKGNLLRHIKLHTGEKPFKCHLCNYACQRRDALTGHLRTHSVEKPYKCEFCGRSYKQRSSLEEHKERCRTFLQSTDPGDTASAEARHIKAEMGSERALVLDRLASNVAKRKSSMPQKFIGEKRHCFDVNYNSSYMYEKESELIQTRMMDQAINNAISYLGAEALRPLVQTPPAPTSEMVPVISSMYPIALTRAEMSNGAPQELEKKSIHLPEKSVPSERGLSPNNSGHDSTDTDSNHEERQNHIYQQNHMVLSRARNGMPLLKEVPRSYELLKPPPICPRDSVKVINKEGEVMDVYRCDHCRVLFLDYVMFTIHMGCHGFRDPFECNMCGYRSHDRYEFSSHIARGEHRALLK
T4 sequence (Q96SW2 whole entry): as the sequence (Q96SW2 whole entry) above
T4 sequence (Q16531 whole entry partner): as the sequence (Q16531 whole entry partner) above
Summary of the method: as §1

[6] = target: T5, CK1α (Homo sapiens, UniProt P48729+Q96SW2); experiment: Western blot degradation of CK1α in hPBMCs (24 h); type: cell-based; details: compounds at 50 nM and 500 nM
T5 construct: The supernatant was aspirated as the extracted total cell protein; endogenous in cells; host or cells: human peripheral blood mononuclear cells (hPBMCs)
T5 sequence (P48729 whole entry): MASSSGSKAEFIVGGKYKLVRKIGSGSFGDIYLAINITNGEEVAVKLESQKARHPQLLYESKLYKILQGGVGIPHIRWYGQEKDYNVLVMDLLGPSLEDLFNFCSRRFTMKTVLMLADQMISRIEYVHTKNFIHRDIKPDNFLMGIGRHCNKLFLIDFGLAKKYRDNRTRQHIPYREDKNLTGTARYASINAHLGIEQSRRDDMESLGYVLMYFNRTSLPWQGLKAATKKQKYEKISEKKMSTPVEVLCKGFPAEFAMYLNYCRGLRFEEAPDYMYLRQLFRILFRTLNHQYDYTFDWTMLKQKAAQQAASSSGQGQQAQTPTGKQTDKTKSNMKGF
T5 sequence (Q96SW2 whole entry): as the sequence (Q96SW2 whole entry) above
T5 sequence (Q16531 whole entry partner): as the sequence (Q16531 whole entry partner) above
Summary of the method: as §1

[7] = target: T6, GSPT1 (Homo sapiens, UniProt P15170+Q96SW2); experiment: Western blot degradation of GSPT1 in hPBMCs (24 h); type: cell-based; details: compounds at 50 nM and 500 nM
T6 construct: The supernatant was aspirated as the extracted total cell protein; endogenous in cells; host or cells: human peripheral blood mononuclear cells (hPBMCs)
T6 sequence (P15170 whole entry): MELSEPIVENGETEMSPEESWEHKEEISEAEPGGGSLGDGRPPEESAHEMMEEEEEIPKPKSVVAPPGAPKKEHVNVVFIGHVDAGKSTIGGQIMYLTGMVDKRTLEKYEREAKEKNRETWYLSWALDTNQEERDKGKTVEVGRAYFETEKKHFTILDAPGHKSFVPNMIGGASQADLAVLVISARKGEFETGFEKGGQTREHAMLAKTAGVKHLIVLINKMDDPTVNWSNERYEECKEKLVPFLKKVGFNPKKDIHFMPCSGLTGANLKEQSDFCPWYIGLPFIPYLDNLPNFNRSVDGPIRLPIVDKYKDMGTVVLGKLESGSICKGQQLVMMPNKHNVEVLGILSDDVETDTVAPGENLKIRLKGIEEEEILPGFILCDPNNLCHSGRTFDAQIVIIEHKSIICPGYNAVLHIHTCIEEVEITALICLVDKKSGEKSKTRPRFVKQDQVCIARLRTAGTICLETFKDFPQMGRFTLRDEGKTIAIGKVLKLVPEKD
T6 sequence (Q96SW2 whole entry): as the sequence (Q96SW2 whole entry) above
T6 sequence (Q16531 whole entry partner): as the sequence (Q16531 whole entry partner) above
Summary of the method: as §1

Row | SMILES | IC50 [1] [nM] | WEE1 substrate protein remaining % [2] | IKZF1 substrate protein remaining % [3] | IKZF2 substrate protein remaining % [4] | IKZF3 substrate protein remaining % [5] | CK1α substrate protein remaining % [6] | GSPT1 substrate protein remaining % [7]
1 | O=C1CCN(N2Cc3cc(CN4CCN(c5cc(Cl)ccc5Cl)CC4)ccc3C2=O)C(=O)N1 [GT-06773, 1-(5-((4-(2,5-dichlorophenyl)piperazin-1-yl)methyl)-1-oxoisoindolin-2-yl)dihydropyrimidine-2,4(1H,3H)-dione] | 100 to 300 | A (0% ≤ substrate protein remaining % ≤80%) | B (80%< substrate protein remaining % ≤100%) | A (0% ≤ substrate protein remaining % ≤80%) | A (0% ≤ substrate protein remaining % ≤80%) | A (0% ≤ substrate protein remaining % ≤80%) | A (0% ≤ substrate protein remaining % ≤80%)
2 | O=C1CCN(N2Cc3cc(CN4CCN(c5cccc(F)c5F)CC4)ccc3C2=O)C(=O)N1 [GT-06777, 1-(5-((4-(2,3-difluorophenyl)piperazin-1-yl)methyl)-1-oxoisoindolin-2-yl)dihydropyrimidine-2,4(1H,3H)-dione] | 300 to 500 | A (0% ≤ substrate protein remaining % ≤80%) | B (80%< substrate protein remaining % ≤100%) | A (0% ≤ substrate protein remaining % ≤80%) | B (80%< substrate protein remaining % ≤100%) | A (0% ≤ substrate protein remaining % ≤80%) | A (0% ≤ substrate protein remaining % ≤80%)
3 | O=C1CCN(N2Cc3cc(CN4CCC(c5ccccc5)CC4)ccc3C2=O)C(=O)N1 [GT-06884, 1-(1-oxo-5-((4-phenylpiperidin-1-yl)methyl)isoindolin-2-yl)dihydropyrimidine-2,4(1H,3H)-dione] | 500 to 1000 | B (80%< substrate protein remaining % ≤100%) | B (80%< substrate protein remaining % ≤100%) | B (80%< substrate protein remaining % ≤100%) | B (80%< substrate protein remaining % ≤100%) | B (80%< substrate protein remaining % ≤100%) | A (0% ≤ substrate protein remaining % ≤80%)
4 | O=C1CCN(N2Cc3cc(CN4CCC(c5cccc(Br)c5)CC4)ccc3C2=O)C(=O)N1 [GT-06885, 1-(5-((4-(3-bromophenyl)piperidin-1-yl)methyl)-1-oxoisoindolin-2-yl)dihydropyrimidine-2,4(1H,3H)-dione] | 100 to 300 | B (80%< substrate protein remaining % ≤100%) | A (0% ≤ substrate protein remaining % ≤80%) | A (0% ≤ substrate protein remaining % ≤80%) | B (80%< substrate protein remaining % ≤100%) | B (80%< substrate protein remaining % ≤100%) | A (0% ≤ substrate protein remaining % ≤80%)
5 | O=C1CCN(N2Cc3cc(CN4CCC(c5cccc(C(F)(F)F)c5)CC4)ccc3C2=O)C(=O)N1 [GT-06892, 1-(1-oxo-5-((4-(3-(trifluoromethyl)phenyl)piperidin-1-yl)methyl)isoindolin-2-yl)dihydropyrimidine-2,4(1H,3H)-dione] | 500 to 1000 | B (80%< substrate protein remaining % ≤100%) | A (0% ≤ substrate protein remaining % ≤80%) | A (0% ≤ substrate protein remaining % ≤80%) | B (80%< substrate protein remaining % ≤100%) | B (80%< substrate protein remaining % ≤100%) | A (0% ≤ substrate protein remaining % ≤80%)
